Data taken from patent publication US7855214B2, “Fused cyclic systems useful as inhibitors of TEC family protein kinases” (Vertex Pharmaceuticals Incorporated, priority 2004, dated 2010).

Target: T1, Itk (Homo sapiens, UniProt Q08881)
T1 sequence (Q08881 1-620): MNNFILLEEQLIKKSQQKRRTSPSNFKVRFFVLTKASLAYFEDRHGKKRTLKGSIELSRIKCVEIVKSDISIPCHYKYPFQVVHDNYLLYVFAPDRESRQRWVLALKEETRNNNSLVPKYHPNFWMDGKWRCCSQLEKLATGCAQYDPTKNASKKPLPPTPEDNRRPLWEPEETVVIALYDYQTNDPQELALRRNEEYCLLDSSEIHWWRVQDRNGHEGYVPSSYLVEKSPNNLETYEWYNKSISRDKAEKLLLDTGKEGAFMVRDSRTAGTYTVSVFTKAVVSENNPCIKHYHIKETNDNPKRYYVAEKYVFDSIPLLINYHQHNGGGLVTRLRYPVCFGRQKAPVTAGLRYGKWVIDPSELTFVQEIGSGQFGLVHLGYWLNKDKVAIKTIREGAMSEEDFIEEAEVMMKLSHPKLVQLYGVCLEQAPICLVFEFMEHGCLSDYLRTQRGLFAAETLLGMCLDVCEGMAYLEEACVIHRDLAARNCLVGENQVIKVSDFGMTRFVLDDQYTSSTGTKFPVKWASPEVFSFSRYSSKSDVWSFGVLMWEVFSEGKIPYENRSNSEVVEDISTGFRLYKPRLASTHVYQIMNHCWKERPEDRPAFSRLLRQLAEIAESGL
Assay: ITK Inhibition Assay (AlphaScreen)
Assay type: biochemical
Settings: Ki(app); 100 μM ATP, 2 μM biotinylated SAM68 peptide, 30 nM Itk, 25° C.
Experimental: Compounds were screened for their ability to inhibit Itk using an AlphaScreen™ phosphotyrosine assay at Vertex Pharmaceuticals. Assays were carried out in a mixture of 20 mM MOPS (pH 7.0), 10 mM MgCl2, 0.1% BSA and 1 mM DTT. Final substrate concentrations in the assay were 100 μM ATP (Sigma Chemicals) and 2 μM peptide (Biotinylated SAM68 Δ332-443). Assays were carried out at 25° C. and in the presence of Itk (30 nM). An assay stock buffer solution was prepared containing all of the reagents listed above, with the exception of ATP and the test compound of interest. 25 μL of the stock solution was placed in each well of a 96 well plate followed by 1 μL of DMSO containing serial dilutions of the test compound (typically starting from a final concentration of 15 μM) in duplicate (final DMSO concentration 2%). The plate was preincubated for 10 minutes at 25° C. and the reaction initiated by addition of 25 μL ATP (final concentration 100 μM). Background counts were determined by the addition of 5 μL 500 mM EDTA to control wells containing assay stock buffer and DMSO prior to initiation with ATP.
The reaction was stopped after 30 minutes by diluting the reaction 225-fold into MOPS buffer (20 mM MOPS (pH 7.0), 1 mM DTT, 10 mM MgCl2, 0.1% BSA) containing 50 mM EDTA to bring the final concentration of Biotin-SAM68 to 9 nM.
AlphaScreen™ reagents were prepared according to the manufacturers instructions (AlphaScreen™ phosphotyrosine (P-Tyr-100) assay kit, PerkinElmer catalogue number 6760620C). Under subdued lighting, 20 μL of AlphaScreen™ reagents were placed in each well of a white half area 96 well plate (Corning Inc.—COSTAR 3693) with 30 μL of the stopped, diluted kinase reactions. Plates were incubated in the dark for 60 minutes prior to reading on a Fusion Alpha plate reader (PerkinElmer).
After removing mean background values for all of the data points, Ki(app) data were calculated from non-linear regression analysis using the Prism software package (GraphPad Prism version 3.0cx for Macintosh, GraphPad Software, San Diego Calif., USA).

Row | Ki [µM] | SMILES
1 | < 1 | CC(C)c1cc(Nc2nc3nc4ccccc4c(=O)n3c3ccccc23)[nH]n1 [Compound I-7]
2 | < 1 | CCCc1cc(Nc2nc3nc4ccccc4c(=O)n3c3ccccc23)n[nH]1 [Compound I-13]
3 | < 1 | COCCCc1cc(Nc2nc3nc4ccccc4c(=O)n3c3ccccc23)n[nH]1 [Compound I-21]
4 | < 1 | O=c1c2ccccc2nc2nc(Nc3cc(C4CCCC4)n[nH]3)c3ccccc3n12 [Compound I-9]
5 | < 1 | Nc1ccc2c(=O)n3c(nc(Nc4cc(C5CC5)[nH]n4)c4ccccc43)nc2c1 [Compound I-1]
6 | < 1 | COc1cc2nc3nc(Nc4cc(C5CC5)n[nH]4)c4ccccc4n3c(=O)c2cc1OC [Compound I-10]
7 | < 1 | COc1cc2nc3nc(Nc4cc(C5CCCC5)n[nH]4)c4ccccc4n3c(=O)c2cc1OC [Compound I-11]
8 | < 1 | O=c1c2ccccc2nc2nc(Nc3cc(C4CC4)n[nH]3)c3c(n12)CCC3 [Compound I-15]
9 | < 1 | Cc1cc(Nc2nc3nc4cc(N)ccc4c(=O)n3c3ccccc23)[nH]n1 [Compound I-3]
10 | < 1 | COc1cc2nc3nc(Nc4cc(C(C)C)n[nH]4)c4ccccc4n3c(=O)c2cc1OC [Compound I-14]
11 | < 1 | O=c1c2ccccc2nc2nc(Nc3cc(CCCO)[nH]n3)c3ccccc3n12 [Compound I-20]
12 | < 1 | CCOC(=O)Nc1ccc2c(=O)n3c(nc(Nc4cc(C5CC5)n[nH]4)c4ccccc43)nc2c1 [Compound I-16]
13 | < 1 | O=c1c2ccccc2nc2nc(Nc3cc(C4CC4)n[nH]3)c3ccccc3n12 [Compound I-2]
14 | < 1 | O=c1c2ccccc2nc2nc(Nc3cc(C4CC4)n[nH]3)c3c(n12)CCCC3 [Compound I-17]
